Measured values reported in patent US12370235B2, “Synthetic, non-natural antimicrobial peptides inspired by Staphylococcus auricularis delta toxin” (University of Saskatchewan, priority 2021, dated 2025).
Like-named read-outs stand apart in the source and are kept apart here. Ends that are not written are not given here.

Experiments:
[1] = test system: Mannheimia haemolytica ATCC 33393; assay: MIC, broth dilution; type: cell-based; conditions: Table 11; highest concentration 25 μg/mL
Outline: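 Peptides (95% purity) in 2-fold dilution series were mixed with M. haemolytica diluted to OD 6×10^−4 in cation-adjusted Mueller Hinton broth and incubated standing overnight at 37 °C. MIC was the lowest concentration with no visible growth.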

[2] = test system: S. aureus / MRSA (ATCC MP-2 panel); type: cell-based, Staphylococcus aureus
Outline: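 MIC by broth microdilution in cation-adjusted Mueller Hinton broth: cultures diluted to OD 6×10^−4 and exposed to 2-fold peptide dilution series, standing overnight at 37° C. MIC = lowest peptide concentration with no visible growth. Panel: one methicillin-sensitive S. aureus plus 7 MRSA strains of distinct SCCmec genotypes.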

[3] = test system: MRSA ATCC 33592; assay: DiSC3(5) membrane polarization assay; type: cell-based, Staphylococcus aureus; conditions: 1.56 to 25 μg/mL
Experimental: Membrane disruption and depolarization are commonly reported mechanisms of AMP action. Two indirect assays that rely on fluorescent dyes were employed to assess the interaction of STIP3-29 and D-STIP3-29 with bacterial membranes. First, changes to SYTOX fluorescence was measured when MRSA ATCC 33592 was treated with increasing peptide concentrations ranging from one fourth to four-fold the MIC. […] Next, DiSC3(5), a cationic dye that binds to polarized membranes was used to report on possible depolarization related to AMP treatment. […] Thus, without wishing to be bound by theory, a more conservative explanation of the results is that the cationic peptides increase membrane permeability to SYTOX and that the like-charge of the AMPs to the reporter of polarization may confound the interpretation of the indirect assay. For example, the AMPs may simply displace the self-quenching DiSC3(5) molecules from the membrane surface without causing depolarization.

[4] = test system: S. pseudintermedius human isolate SPC001 (MSSP); assay: MIC, broth dilution; type: cell-based, Staphylococcus pseudintermedius
Experimental: (§1) MIC determination. MICs were measured using peptides with 95% purity. For bacterial studies, cation-adjusted Mueller Hinton (MH) broth was used as the growth medium whereas Yeast Peptone Dextrose (YPD; 10 g/L yeast extract, 20 g/L peptone, 20 g/L dextrose) was used for Candida spp. and other yeast. Microorganisms were diluted to an optical density of […] in MH or YPD broth and a 180 μl volume was mixed with 20 μl of peptide arrayed as a 2-fold dilution series in a flat-bottom 96-well microtitre plate. A control was performed using 20 μl of sterile water. Plates were incubated as standing cultures overnight at 37° C.
(§2) Determination of minimum inhibitory concentrations. The MICs were measured for bioactive peptides identified from the initial screen. For bacterial studies, cation-adjusted Mueller Hinton (MH) broth was used as the growth medium whereas YPD was used for C. albicans. Bacterial cultures were diluted to a OD value of 6×10^−4 in MH broth and a 180 μl volume was mixed with 20 μl of peptide arrayed as 2-fold dilution series in a 96-well plate. For the positive control, 20 μl of sterile water was used. Plates were incubated as standing cultures overnight at 37° C. The lowest peptide concentration that resulted no observed microbial growth after an overnight treatment was defined as the MIC.

[5] = test system: S. pseudintermedius canine isolate MRSP16; assay: MIC, broth dilution; type: cell-based, Staphylococcus pseudintermedius
Experimental: as §1, §2

[6] = test system: S. pseudintermedius canine isolate MSSP42; assay: MIC, broth dilution; type: cell-based, Staphylococcus pseudintermedius
Experimental: as §1, §2

[7] = test system: panel of 7 MRSA strains; type: cell-based, Staphylococcus aureus
Experimental: The antibiotic effect of STIP3-29 was bactericidal (FIG. 3). […] Some proportion of bacterial cells escaped treatment, remaining dormant. Indeed, strain-dependent persister cells, capable of escaping a variety of therapeutic agents, have been described for S. aureus^47.
Measurement of bactericidal activity. […] For S. aureus, an overnight culture was diluted to an OD of 5×10^−7 in 2 ml of MH broth supplemented with the appropriate concentration of peptide. Sterile water was added to control cultures. Standing cultures were incubated at 37° C. and 100 μl volume aliquots were removed at 60 min time intervals for 8 h. These aliquots were plated on agar plates to measure the colony forming units (CFUs) that remained viable upon treatment. Control aliquots from the same time intervals were diluted before plating to accurately enumerate increasing CFU counts. Counts were performed from plates that were incubated at 37° C. overnight. A plot of CFU/ml against time was used to illustrate and evaluate the time dependent killing. The same procedure was followed for C. albicans except that YPD broth and a cultivation temperature of 30° C. was employed.

TVGGLVKWILKTVKKFA-NH2 [STIP3-29, TVGGLVKWILKTVKKFA-NH2]
MIC (μg/mL) M. haemolytica [1]: 25 µg/mL | MIC, MRSA [2]: 6.25 mg/L | MIC, MRSA ([2]; molar): 3.3 µM | fold improvement of activity (MIC) ([2]; relative to STIP3-1, S. aureus / MRSA): 16 fold | DiSC3(5) fluorescence change [3]: dose-dependent increase in fluorescence | MIC [4]: 3.13 mg/L | MIC [5]: 3.13 mg/L | MIC [6]: 3.13 mg/L | treated bacteria killed ([7]; 12.5 μg/mL (2-fold MIC), within the first 4 hours, panel of 7 MRSA strains): ~99% | antibiotic effect ([7]; in words): bactericidal
